The text below walks through data of patent US7045550B2, “Polyamines and analogs for protecting cells during cancer chemotherapy and radiotherapy” (Wisconsin Alumni Research Foundation, priority 2001, dated 2006).

Test [1] has as its system rat pups challenged with cytoxan. Briefly: Cytoxan (CTX)-induced alopecia model in rat pups, topical polyamine effector. The class given is in vivo, Sprague Dawley rat. To be noted: 5 mM; versus naturally-occurring polyamines or simple polyamine analogs. As to the method:
(§1) Induction of alopecia by cytoxan (CTX). Lactating Sprague Dawley mother rats with rat pups were purchased from Harlan Sprague Dawley (Indianapolis, Ind.). The mother rats were given food and water ad libitum. The rats pups were tested in the model of chemotherapy-induced alopecia described by Hussein A. M. et al., Science: 249, 1564 (1990). Cytoxan (CTX), a chemotherapeutic widely used in the treatment of cancer, was used to induce alopecia in the rats. A common side effect of cytoxan in patients is alopecia. Cytoxan and polyamine effector compounds were purchased from Sigma Chemicals Co. (St. Louis, Mo.). To produce CTX-induced alopecia, 7 to 10 day old rat pups were injected i.p. with 35 mg/kg of CTX prepared in phosphate-buffered saline. To produce reproducible CTX induced alopecia, we first tested several concentrations (35, 40, 45 ug/gm body weight) of CTX in phosphate-buffered saline (PBS), which was injected i.p. in 7–10 day old pups. Seven to ten days after CTX treatment the pups were examined to determine the degree of hair loss. The density of hair on the pups was then determined. 100% hair density represents that found on the untreated control pups while 0% represented pups with total hair loss. It was observed that 35 ug/gm of CTX was sufficient to induce 100% hair loss approximately 7 days after cytoxan challenge, and this concentration was used in subsequent experiments.
Different types of polyamine effector agents were tested in this model. The effectors were prepared in a delivery vehicle, consisting of from 60–100% ethanol in water, depending on the solubility of the compound. The compounds in ethanol/water solution from 50–150 μl in volume were topically administered to the backs of the pups once per day before and after CTX challenge. Using a micropipette, the formulation was applied to approximately 2 cm^2 section of skin to the backs of the rat pups. Specifically, the pups were treated once daily for the 4–5 days before CTX challenge, once on the day of CTX challenge and once daily for 5 days afterwards. Control groups consisted of pups receiving only delivery vehicle. Control groups treated with delivery vehicle were tested as part of every treatment study. Two or more animals were tested per group in both the control and test groups.
Approximately 7 to 10 days after CTX treatment, the pups were evaluated for alopecia. Hair loss was evaluated using a modified alopecia-scoring index described by Chen G. et al., Int. J. Cancer: 75, 303 (1998). A score of 0=no hair loss; a score of 1=10–30% hair loss; a score of 2=40–60% hair loss; a score of 3=70–90% hair loss; and a score of 4=100% hair loss.
as §1, with “It was observed that 35 ug/gm of CTX was sufficient to induce 100% hair loss approximately 7 days after cytoxan challenge, and this concentration was used in subsequent experiments.” left out

For test [2], the system named is rat pups challenged with cytarbine. Briefly: Cytarbine-induced alopecia model in rat pups. Format: in vivo. To be noted: treatment (1 mM), vehicle 4.0. An excerpt: (§2) Alopecia was induced in rat pups by Cytoxan, cytarbine, doxorubicin and radiation, according to the methods described in the previous examples. Polyamines from three different structural families, obtained from two different sources, gave excellent results in animal alopecia models for Cytoxan, cytarbine and doxorubicin.

The subject of test [3] is rat pups challenged with doxorubicin. Briefly: Doxorubicin-induced alopecia model in rat pups. Format: in vivo. To be noted: vehicle 4.0.
Text: as §2

Turning to `CCNCCCCNCCCCNCCCCNCCCCNC/C=C/CNCCCCNCCCCNCCCCNCCCCNCC` [SL-11144], the “activity in both the alopecia and dermatitis models” value in test [1] was “overall greater activity”. Besides, the “Avg Alopecia Scores” value in test [2] came out at 3.0. Besides, the “Avg Alopecia Score” value in test [3] was 0.0.
